Columns and labels:
[1] = molecular target: T1, MERTK (Homo sapiens, UniProt Q12866); test: TR-FRET kinase activity assay, MERTK; assay type: biochemical; details: for IC50: TR-FRET activity assay, ATP at Km, 60 minutes, read-out: Mer IC50; for FLT3/Mer ratio (FLT3 IC50/Mer IC50): ratio of Mer to FLT3: FLT3 IC50/Mer IC50
T1 sequence (Q12866 21-999): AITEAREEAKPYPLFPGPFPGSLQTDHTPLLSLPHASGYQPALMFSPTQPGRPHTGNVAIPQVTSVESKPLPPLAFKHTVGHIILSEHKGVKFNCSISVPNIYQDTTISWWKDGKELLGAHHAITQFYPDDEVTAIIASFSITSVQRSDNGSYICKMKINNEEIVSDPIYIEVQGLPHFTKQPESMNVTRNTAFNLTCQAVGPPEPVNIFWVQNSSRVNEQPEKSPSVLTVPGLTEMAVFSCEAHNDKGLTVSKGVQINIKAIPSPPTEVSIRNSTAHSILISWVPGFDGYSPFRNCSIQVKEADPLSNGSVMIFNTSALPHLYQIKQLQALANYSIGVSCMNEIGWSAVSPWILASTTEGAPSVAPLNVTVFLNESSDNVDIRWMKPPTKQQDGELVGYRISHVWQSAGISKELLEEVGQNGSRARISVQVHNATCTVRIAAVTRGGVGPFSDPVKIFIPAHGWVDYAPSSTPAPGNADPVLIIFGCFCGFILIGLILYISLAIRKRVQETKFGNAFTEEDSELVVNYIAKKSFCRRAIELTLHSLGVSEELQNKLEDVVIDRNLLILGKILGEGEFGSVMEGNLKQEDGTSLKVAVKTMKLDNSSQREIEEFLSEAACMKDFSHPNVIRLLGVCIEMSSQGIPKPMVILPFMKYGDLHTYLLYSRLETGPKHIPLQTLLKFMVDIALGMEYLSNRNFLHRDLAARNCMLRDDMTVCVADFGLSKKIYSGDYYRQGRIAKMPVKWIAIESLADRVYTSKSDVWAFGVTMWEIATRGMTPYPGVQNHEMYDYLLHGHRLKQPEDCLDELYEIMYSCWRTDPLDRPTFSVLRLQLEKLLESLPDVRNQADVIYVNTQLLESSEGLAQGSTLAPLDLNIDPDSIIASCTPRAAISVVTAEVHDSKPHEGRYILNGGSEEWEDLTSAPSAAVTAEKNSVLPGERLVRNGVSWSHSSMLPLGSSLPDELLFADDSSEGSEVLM
Summary of the method: (§1)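 IC50 reflects the drop in TR-FRET between Eu anti-phosphotyrosine antibody and labelled peptide after a 60-minute room-temperature reaction. Buffer was 50 mM HEPES pH 7.5 with 10 mM MgCl2, 1 mM EGTA, 0.01% Brij 35 and 1 mM DTT, with ATP at Km per enzyme and EDTA quench.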

[2] = molecular target: T2, TYRO3 (Homo sapiens, UniProt Q06418); test: TR-FRET kinase activity assay, TYRO3; assay type: biochemical; details: ATP at Km, 60 minutes
T2 sequence (Q06418 41-890): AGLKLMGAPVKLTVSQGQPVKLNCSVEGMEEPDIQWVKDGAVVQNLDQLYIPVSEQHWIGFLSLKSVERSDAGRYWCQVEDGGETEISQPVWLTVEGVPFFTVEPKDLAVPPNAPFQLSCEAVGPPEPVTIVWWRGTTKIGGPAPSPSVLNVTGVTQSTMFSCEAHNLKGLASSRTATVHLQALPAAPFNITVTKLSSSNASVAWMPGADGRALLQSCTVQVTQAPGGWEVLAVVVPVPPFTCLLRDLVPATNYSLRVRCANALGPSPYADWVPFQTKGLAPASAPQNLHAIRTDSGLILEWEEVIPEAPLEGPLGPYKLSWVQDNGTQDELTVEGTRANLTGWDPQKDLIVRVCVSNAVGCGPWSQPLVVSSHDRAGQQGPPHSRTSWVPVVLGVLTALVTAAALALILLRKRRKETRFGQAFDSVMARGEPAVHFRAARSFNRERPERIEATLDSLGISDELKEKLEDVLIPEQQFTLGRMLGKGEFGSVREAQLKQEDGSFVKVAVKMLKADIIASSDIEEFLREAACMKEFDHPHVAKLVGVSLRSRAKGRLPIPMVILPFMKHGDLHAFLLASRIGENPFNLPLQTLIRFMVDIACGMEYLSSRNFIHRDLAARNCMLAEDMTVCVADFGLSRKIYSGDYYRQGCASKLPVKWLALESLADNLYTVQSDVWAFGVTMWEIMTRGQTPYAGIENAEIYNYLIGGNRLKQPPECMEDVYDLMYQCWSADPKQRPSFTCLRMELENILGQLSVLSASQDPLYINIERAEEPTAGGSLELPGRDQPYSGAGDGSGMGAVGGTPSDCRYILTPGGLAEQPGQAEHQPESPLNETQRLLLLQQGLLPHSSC
Summary of the method: as §1

SMILES | IC50 [1] | FLT3/Mer ratio (FLT3 IC50/Mer IC50) [1] | IC50 [2]
COC[C@H](C)Nc1ncc2c(-c3cnn(C4CN(C(C)=O)C4)c3)cc([C@H]3CC[C@H](O)CC3)n2n1 [Compound 286] | ≤ 100 nM | +++ (“+++” represents a ratio of >100) | ≤ 100 nM
COC[C@H](C)Nc1ncc2c(-c3cnn(C[C@H]4CCC(=O)N4)c3)cc([C@H]3CC[C@H](O)CC3)n2n1 [Compound 324] | ≤ 100 nM | +++ (“+++” represents a ratio of >100) | ≤ 100 nM
COC[C@H](C)Nc1ncc2c(-c3cnn(C4CC(S(C)(=O)=O)C4)c3)cc([C@H]3CC[C@H](O)CC3)n2n1 (stereo partly drawn) [Compound 287] | ≤ 100 nM | +++ (“+++” represents a ratio of >100) | ≤ 100 nM
CNC(=O)C(C)(C)n1cc(-c2cc([C@H]3CC[C@H](O)CC3)n3nc(N[C@@H](C)COC)ncc23)cn1 [Compound 295] | ≤ 100 nM | +++ (“+++” represents a ratio of >100) | ≤ 100 nM
COC[C@H](C)Nc1ncc2c(-c3cnn(C(C)(C)C(=O)C4C[C@H]5COC[C@H]5C4)c3)cc([C@H]3CC[C@H](O)CC3)n2n1 (stereo partly drawn) [Compound 319] | ≤ 100 nM | +++ (“+++” represents a ratio of >100) | ≤ 100 nM
COCCOc1cc(-c2cc([C@H]3CC[C@H](O)CC3)n3nc(N[C@@H](C)COC)ncc23)ccn1 [Compound 345] | ≤ 100 nM | +++ (“+++” represents a ratio of >100) | ≤ 100 nM
CNC(=O)c1cncc(-c2cc([C@H]3CC[C@H](O)CC3)n3nc(N[C@@H](C)CC(F)(F)F)ncc23)c1 [Compound 304] | ≤ 100 nM | +++ (“+++” represents a ratio of >100) | ≤ 100 nM
COC[C@H](C)Nc1ncc2c(-c3cnn(C(C)(C)C(=O)O)c3)cc([C@H]3CC[C@H](O)CC3)n2n1 [Compound 284] | ≤ 100 nM | +++ (“+++” represents a ratio of >100) | ≤ 100 nM
C[C@@H](CC(F)(F)F)Nc1ncc2c(-c3cnn(CCS(C)(=O)=O)c3)cc([C@H]3CC[C@H](O)CC3)n2n1 [Compound 288] | ≤ 100 nM | ++ (“++” represents a ratio of between 10 and 100) | ≤ 100 nM
COC[C@H](C)Nc1ncc2c(-c3cnn(Cc4cc(C)nn4C)c3)cc([C@H]3CC[C@H](O)CC3)n2n1 [Compound 333] | ≤ 100 nM | +++ (“+++” represents a ratio of >100) | ≤ 100 nM
COC[C@H](C)Nc1ncc2c(-c3cnn(Cc4nc(C)no4)c3)cc([C@H]3CC[C@H](O)CC3)n2n1 [Compound 292] | ≤ 100 nM | +++ (“+++” represents a ratio of >100) | ≤ 100 nM
C[C@@H](CC(F)(F)F)Nc1ncc2c(-c3cnn([C@H]4CCOC4)c3)cc([C@H]3CC[C@H](O)CC3)n2n1 [Compound 290] | ≤ 100 nM | ++ (“++” represents a ratio of between 10 and 100) | ≤ 100 nM
COC[C@H](C)Nc1ncc2c(-c3cnn(Cc4nnc(C)o4)c3)cc([C@H]3CC[C@H](O)CC3)n2n1 [Compound 277] | ≤ 100 nM | +++ (“+++” represents a ratio of >100) | ≤ 100 nM
COC[C@H](C)Nc1ncc2c(-c3cnn(C(C)(C)C(=O)N4C[C@H]5CC[C@@H](C4)O5)c3)cc([C@H]3CC[C@H](O)CC3)n2n1 [Compound 327] | ≤ 100 nM | +++ (“+++” represents a ratio of >100) | ≤ 100 nM
COC[C@H](C)Nc1ncc2c(-c3cnn(Cc4ccc(S(C)(=O)=O)cc4)c3)cc([C@H]3CC[C@H](O)CC3)n2n1 [Compound 314] | ≤ 100 nM | +++ (“+++” represents a ratio of >100) | ≤ 100 nM
COC[C@H](C)Nc1ncc2c(-c3cnn(Cc4cn[nH]c4)c3)cc([C@H]3CC[C@H](O)CC3)n2n1 [Compound 332] | ≤ 100 nM | +++ (“+++” represents a ratio of >100) | ≤ 100 nM
